Measurements published in publication PMC9097471, “Development of Selective Phosphatidylinositol 5-Phosphate 4-Kinase γ Inhibitors with a Non-ATP-competitive, Allosteric Binding Mode” (Journal of Medicinal Chemistry, 2022).

Legend:
Choline Kinase alpha = Choline Kinase alpha (Homo sapiens, UniProt P35790); experiment: Lipid kinase panel, ADP-Glo; assay type: biochemical
Excerpt: (§1) Kinase % activity remaining s.d.
(§2) Choline Kinase alpha 101.6 3.2

DGK zeta = DGK zeta (Homo sapiens, UniProt Q13574); experiment: Lipid kinase panel, ADP-Glo; assay type: biochemical
Excerpt: as §1, §2

PI3K beta = PI3K beta (Homo sapiens, UniProt P42338); experiment: Lipid kinase panel, ADP-Glo; assay type: biochemical
Excerpt: as §1, §2

PI3K gamma = PI3K gamma (Homo sapiens, UniProt P48736); experiment: Lipid kinase panel, ADP-Glo; assay type: biochemical
Excerpt: as §1, §2

PI3Ka E524K +P85 = experiment: Lipid kinase panel, ADP-Glo; assay type: biochemical; details: PI3Ka E524K +P85, 10 μM
Excerpt: as §1, §2

PI3Kalpha = PI3Kalpha (Homo sapiens, UniProt P42336); experiment: Lipid kinase panel, ADP-Glo; assay type: biochemical
Excerpt: as §1, §2

PI4K2a = PI4K2a (Homo sapiens, UniProt Q9BTU6); experiment: Lipid kinase panel, ADP-Glo; assay type: biochemical
Excerpt: as §1, §2

PIK4Ca = PIK4Ca (Homo sapiens, UniProt P42356); experiment: Lipid kinase panel, ADP-Glo; assay type: biochemical
Excerpt: as §1, §2

PIP5K2a = PIP5K2a (Homo sapiens, UniProt P48426); experiment: Lipid kinase panel, ADP-Glo; assay type: biochemical
Excerpt: as §1, §2

SPHK1 = SPHK1 (Homo sapiens, UniProt Q9NYA1); experiment: Lipid kinase panel, ADP-Glo; assay type: biochemical; details: SPHK1, 10 μM
Excerpt: as §1, §2

MKK1 = MKK1 (Homo sapiens, UniProt Q02750); experiment: Kinase panel, radiometric 33P filter binding; details: read-out: % activity remaining
JNK3 = JNK3 (Homo sapiens, UniProt P53779); experiment: Kinase panel, radiometric 33P filter binding; details: read-out: % activity remaining
Excerpt: (§3) filter binding assay using 33P-g-ATPat the MRC PPU International Centre for Kinase Profiling, University of

p38b MAPK = p38b MAPK (Homo sapiens, UniProt Q15759); experiment: Kinase panel, radiometric 33P filter binding; details: read-out: % activity remaining
Excerpt: as §3

ERK8 = ERK8 (Homo sapiens, UniProt Q8TD08); experiment: Kinase panel, radiometric 33P filter binding; details: read-out: % activity remaining
Excerpt: as §3

PDK1 = PDK1 (Homo sapiens, UniProt O15530); experiment: Kinase panel, radiometric 33P filter binding; details: read-out: % activity remaining
Excerpt: as §3

PKBa = PKBa (Homo sapiens, UniProt P31749); experiment: Kinase panel, radiometric 33P filter binding; details: read-out: % activity remaining
Excerpt: as §3

PKBb = PKBb (Homo sapiens, UniProt P31751); experiment: Kinase panel, radiometric 33P filter binding; details: read-out: % activity remaining
Excerpt: as §3

ROCK 2 = ROCK 2 (Rattus norvegicus, UniProt Q62868); experiment: Kinase panel, radiometric 33P filter binding; details: read-out: % activity remaining
Excerpt: as §3

PRAK = PRAK (Homo sapiens, UniProt Q8IW41); experiment: Kinase panel, radiometric 33P filter binding; details: read-out: % activity remaining
Excerpt: as §3

CHK1 = CHK1 (Homo sapiens, UniProt O14757); experiment: Kinase panel, radiometric 33P filter binding; details: read-out: % activity remaining
Excerpt: as §3

CHK2 = CHK2 (Homo sapiens, UniProt O96017); experiment: Kinase panel, radiometric 33P filter binding; details: read-out: % activity remaining
Excerpt: as §3

MARK3 = MARK3 (Homo sapiens, UniProt P27448); experiment: Kinase panel, radiometric 33P filter binding; details: read-out: % activity remaining
Excerpt: as §3

TTBK2 = TTBK2 (Homo sapiens, UniProt Q6IQ55); experiment: Kinase panel, radiometric 33P filter binding; details: read-out: % activity remaining
Excerpt: as §3

DYRK2 = DYRK2 (Homo sapiens, UniProt Q92630); experiment: Kinase panel, radiometric 33P filter binding; details: read-out: % activity remaining
Excerpt: as §3

PIM1 = PIM1 (Homo sapiens, UniProt P11309); experiment: Kinase panel, radiometric 33P filter binding; details: read-out: % activity remaining
Excerpt: as §3

PIM3 = PIM3 (Homo sapiens, UniProt Q86V86); experiment: Kinase panel, radiometric 33P filter binding; details: read-out: % activity remaining
Excerpt: as §3

CLK2 = CLK2 (Homo sapiens, UniProt P49760); experiment: Kinase panel, radiometric 33P filter binding; details: read-out: % activity remaining
Excerpt: as §3

PAK5 = PAK5 (Homo sapiens, UniProt Q9P286); experiment: Kinase panel, radiometric 33P filter binding; details: read-out: % activity remaining
MINK1 = MINK1 (Homo sapiens, UniProt Q8N4C8); experiment: Kinase panel, radiometric 33P filter binding; details: read-out: % activity remaining
Excerpt: as §3

MEKK1 = MEKK1 (Homo sapiens, UniProt Q13233); experiment: Kinase panel, radiometric 33P filter binding; details: read-out: % activity remaining
Excerpt: as §3

IRAK4 = IRAK4 (Homo sapiens, UniProt Q9NWZ3); experiment: Kinase panel, radiometric 33P filter binding; details: read-out: % activity remaining
ULK1 = ULK1 (Homo sapiens, UniProt O75385); experiment: Kinase panel, radiometric 33P filter binding; details: read-out: % activity remaining
Excerpt: as §3

Src = Src (Homo sapiens, UniProt P12931); experiment: Kinase panel, radiometric 33P filter binding; details: read-out: % activity remaining
SYK = SYK (Homo sapiens, UniProt P43405); experiment: Kinase panel, radiometric 33P filter binding; details: read-out: % activity remaining
EPH-B4 = EPH-B4 (Homo sapiens, UniProt P54760); experiment: Kinase panel, radiometric 33P filter binding; details: read-out: % activity remaining
Excerpt: as §3

IRR = IRR (Homo sapiens, UniProt P14616); experiment: Kinase panel, radiometric 33P filter binding; details: read-out: % activity remaining
Excerpt: as §3

DDR2 = DDR2 (Homo sapiens, UniProt Q16832); experiment: Kinase panel, radiometric 33P filter binding; details: read-out: % activity remaining
Excerpt: as §3

PI5P4Kγ+ = PI5P4Kγ+ (Homo sapiens, UniProt Q8TBX8, D138G/D197E/E133P/E135D/E153T/E196G/G136S/G139A/N195G/S132L/S134N); experiment: Thermal shift assay; details: read-out: ΔTm PI5P4Kγ+

Sequence of Src (P12931 whole entry): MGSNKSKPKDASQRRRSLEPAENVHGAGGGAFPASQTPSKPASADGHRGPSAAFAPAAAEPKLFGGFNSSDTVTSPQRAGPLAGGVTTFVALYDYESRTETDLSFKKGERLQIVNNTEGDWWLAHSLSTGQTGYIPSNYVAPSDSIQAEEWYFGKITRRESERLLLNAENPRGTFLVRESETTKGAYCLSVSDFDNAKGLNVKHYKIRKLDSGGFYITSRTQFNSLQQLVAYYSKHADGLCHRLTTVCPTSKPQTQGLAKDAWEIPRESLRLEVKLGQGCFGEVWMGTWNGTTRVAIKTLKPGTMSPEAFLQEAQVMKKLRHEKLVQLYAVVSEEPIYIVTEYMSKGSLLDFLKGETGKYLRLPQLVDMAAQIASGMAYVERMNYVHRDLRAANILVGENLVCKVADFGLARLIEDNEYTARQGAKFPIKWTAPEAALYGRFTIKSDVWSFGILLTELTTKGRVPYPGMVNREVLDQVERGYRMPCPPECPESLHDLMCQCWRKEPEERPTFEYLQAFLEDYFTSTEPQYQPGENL
Sequence of PKBa (P31749 whole entry): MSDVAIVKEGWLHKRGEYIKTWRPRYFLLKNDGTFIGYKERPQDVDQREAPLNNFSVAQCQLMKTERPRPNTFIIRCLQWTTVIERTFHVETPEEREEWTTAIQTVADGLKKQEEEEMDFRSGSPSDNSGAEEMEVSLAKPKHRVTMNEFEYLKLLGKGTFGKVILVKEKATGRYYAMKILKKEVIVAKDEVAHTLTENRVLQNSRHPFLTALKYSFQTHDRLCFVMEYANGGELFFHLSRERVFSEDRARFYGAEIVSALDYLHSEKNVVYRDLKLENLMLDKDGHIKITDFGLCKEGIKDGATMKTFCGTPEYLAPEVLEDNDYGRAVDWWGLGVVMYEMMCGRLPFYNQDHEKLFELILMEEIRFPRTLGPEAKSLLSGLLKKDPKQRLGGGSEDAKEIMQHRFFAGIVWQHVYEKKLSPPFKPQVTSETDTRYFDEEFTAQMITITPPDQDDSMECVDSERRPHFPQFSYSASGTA
Sequence of MARK3 (P27448 whole entry): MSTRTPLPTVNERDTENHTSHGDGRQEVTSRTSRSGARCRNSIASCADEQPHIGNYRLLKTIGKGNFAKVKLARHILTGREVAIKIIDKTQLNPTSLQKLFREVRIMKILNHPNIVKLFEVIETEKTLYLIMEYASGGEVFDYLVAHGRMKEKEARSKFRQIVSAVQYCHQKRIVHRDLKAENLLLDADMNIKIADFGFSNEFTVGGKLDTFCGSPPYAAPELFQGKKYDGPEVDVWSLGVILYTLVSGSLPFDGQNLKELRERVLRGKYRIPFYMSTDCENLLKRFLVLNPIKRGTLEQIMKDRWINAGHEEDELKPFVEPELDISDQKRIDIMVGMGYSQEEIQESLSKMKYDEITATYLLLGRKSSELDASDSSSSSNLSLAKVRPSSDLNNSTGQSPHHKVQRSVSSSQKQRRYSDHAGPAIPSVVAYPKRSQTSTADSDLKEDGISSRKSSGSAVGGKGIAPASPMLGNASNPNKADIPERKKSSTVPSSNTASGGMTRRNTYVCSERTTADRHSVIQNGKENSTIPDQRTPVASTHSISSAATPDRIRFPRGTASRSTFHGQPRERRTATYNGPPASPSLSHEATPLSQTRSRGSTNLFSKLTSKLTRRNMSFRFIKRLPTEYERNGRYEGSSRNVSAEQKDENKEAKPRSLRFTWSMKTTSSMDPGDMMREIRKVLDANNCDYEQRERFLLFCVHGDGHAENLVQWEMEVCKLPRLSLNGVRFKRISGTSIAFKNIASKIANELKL
Sequence of JNK3 (P53779 whole entry): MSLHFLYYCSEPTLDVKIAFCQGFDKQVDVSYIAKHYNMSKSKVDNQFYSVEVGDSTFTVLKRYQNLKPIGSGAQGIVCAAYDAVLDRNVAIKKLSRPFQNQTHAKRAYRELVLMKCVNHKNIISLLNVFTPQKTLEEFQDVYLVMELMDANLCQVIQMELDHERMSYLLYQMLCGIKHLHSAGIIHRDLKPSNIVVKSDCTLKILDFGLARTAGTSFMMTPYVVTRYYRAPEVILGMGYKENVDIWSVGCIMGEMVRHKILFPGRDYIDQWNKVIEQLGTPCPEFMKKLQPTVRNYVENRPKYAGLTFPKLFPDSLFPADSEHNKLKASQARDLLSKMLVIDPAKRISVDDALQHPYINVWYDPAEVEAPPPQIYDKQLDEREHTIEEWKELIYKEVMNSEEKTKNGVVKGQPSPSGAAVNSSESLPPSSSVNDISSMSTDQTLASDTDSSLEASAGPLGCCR
Sequence of CLK2 (P49760 whole entry): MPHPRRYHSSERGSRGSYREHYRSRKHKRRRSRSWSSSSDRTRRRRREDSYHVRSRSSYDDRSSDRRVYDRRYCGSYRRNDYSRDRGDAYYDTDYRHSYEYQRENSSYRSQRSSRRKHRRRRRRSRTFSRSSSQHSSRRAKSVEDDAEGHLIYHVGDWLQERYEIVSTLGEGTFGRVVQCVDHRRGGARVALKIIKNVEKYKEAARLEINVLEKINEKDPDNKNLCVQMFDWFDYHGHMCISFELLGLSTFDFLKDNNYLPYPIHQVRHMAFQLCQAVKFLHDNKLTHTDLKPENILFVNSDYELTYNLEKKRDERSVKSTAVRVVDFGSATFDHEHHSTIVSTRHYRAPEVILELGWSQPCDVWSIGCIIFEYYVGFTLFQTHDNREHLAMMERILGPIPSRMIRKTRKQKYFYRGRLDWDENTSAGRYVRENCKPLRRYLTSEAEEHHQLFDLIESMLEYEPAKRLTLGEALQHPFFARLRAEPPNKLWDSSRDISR
Sequence of PI3K beta (P42338 whole entry, species assumed): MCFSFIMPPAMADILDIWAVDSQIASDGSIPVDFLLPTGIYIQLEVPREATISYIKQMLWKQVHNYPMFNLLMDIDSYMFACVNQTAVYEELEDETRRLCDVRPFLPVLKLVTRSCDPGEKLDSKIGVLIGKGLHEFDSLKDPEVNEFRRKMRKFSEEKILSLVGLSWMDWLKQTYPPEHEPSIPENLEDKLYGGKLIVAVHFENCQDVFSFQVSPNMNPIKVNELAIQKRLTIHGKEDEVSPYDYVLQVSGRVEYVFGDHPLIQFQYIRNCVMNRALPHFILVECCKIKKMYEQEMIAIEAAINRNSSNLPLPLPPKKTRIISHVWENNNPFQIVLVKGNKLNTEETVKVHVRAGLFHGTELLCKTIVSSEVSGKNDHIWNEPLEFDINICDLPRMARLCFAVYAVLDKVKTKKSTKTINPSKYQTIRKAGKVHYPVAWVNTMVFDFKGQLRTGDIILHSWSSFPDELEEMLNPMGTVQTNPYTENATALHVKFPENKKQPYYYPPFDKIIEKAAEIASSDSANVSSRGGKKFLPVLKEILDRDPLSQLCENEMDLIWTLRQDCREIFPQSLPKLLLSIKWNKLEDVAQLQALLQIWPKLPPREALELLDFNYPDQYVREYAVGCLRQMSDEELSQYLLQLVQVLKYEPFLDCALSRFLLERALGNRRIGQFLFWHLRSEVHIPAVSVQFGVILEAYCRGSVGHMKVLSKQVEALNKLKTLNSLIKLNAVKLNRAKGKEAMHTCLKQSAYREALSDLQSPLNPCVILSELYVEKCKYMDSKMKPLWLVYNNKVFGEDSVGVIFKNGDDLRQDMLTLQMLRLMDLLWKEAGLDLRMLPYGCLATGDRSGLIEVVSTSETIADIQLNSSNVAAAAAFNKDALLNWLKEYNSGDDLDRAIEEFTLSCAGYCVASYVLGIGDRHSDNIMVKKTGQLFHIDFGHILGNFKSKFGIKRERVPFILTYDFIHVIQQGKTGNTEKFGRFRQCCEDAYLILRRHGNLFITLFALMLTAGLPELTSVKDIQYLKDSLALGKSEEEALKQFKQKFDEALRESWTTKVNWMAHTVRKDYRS
Sequence of PI3K beta (P27986 whole entry partner, species assumed): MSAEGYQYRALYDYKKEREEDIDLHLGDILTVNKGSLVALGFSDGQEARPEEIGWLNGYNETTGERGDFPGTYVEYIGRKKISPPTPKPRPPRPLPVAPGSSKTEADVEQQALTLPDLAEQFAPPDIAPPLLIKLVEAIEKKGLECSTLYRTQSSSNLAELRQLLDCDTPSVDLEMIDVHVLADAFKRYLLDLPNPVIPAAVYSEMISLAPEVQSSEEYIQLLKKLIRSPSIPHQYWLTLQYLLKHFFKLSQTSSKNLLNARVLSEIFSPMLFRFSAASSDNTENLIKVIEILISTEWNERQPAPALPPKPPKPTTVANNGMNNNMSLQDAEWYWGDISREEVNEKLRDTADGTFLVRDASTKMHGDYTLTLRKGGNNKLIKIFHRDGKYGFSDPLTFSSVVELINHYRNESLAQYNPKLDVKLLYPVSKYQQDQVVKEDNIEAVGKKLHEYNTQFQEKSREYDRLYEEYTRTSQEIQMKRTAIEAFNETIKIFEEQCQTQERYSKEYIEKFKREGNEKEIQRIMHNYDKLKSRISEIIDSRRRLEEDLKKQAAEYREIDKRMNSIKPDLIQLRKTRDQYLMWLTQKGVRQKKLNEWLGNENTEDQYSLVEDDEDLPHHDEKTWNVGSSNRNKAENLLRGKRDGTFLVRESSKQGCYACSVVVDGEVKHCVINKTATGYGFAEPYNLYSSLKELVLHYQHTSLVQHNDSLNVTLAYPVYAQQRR
Sequence of IRAK4 (Q9NWZ3 whole entry): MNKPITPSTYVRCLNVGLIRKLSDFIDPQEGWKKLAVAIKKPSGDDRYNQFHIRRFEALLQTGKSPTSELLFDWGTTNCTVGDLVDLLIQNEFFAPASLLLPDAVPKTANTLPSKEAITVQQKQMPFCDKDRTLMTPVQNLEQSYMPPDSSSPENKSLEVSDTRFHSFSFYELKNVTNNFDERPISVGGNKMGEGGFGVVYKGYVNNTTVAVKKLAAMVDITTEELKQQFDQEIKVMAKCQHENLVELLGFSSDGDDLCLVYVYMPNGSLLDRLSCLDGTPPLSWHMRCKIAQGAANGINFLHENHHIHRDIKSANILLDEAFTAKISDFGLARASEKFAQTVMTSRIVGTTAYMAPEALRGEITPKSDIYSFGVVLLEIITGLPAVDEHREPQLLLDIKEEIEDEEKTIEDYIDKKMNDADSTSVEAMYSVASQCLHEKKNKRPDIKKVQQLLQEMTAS

`CC(C)c1ccccc1-c1nc(NCc2ccccn2)c2c(ccn2C)n1` [Compound 40] showed a remaining activity at 10 µM (Choline Kinase alpha) of 102%, a remaining activity at 10 µM (DGK zeta) of 106% and a remaining activity at 10 µM (PI3K beta) of 111%. For the same compound, the remaining activity at 10 µM (PI3K gamma) was 103%, the “% activity remaining” value (PI3Ka E524K +P85) was 102.0% and the remaining activity at 10 µM (PI3Kalpha) was 91.4%. It also gave a remaining activity at 10 µM (PI4K2a) of 93.5%, a remaining activity at 10 µM (PIK4Ca) of 81.1% and a remaining activity at 10 µM (PIP5K2a) of 100%. The remaining activity at 10 µM (SPHK1) was 91.8%, the remaining activity at 10 µM (MKK1) was 92% and the remaining activity at 10 µM (JNK3) was 97%. For the same compound, the remaining activity at 10 µM (p38b MAPK) was 94%, the remaining activity at 10 µM (ERK8) was 109% and the remaining activity at 10 µM (PDK1) was 103%. For the same compound, the remaining activity at 10 µM (PKBa) was 103%, the remaining activity at 10 µM (PKBb) was 75% and the remaining activity at 10 µM (ROCK 2) was 97%. The remaining activity at 10 µM (PRAK) was 98%, the remaining activity at 10 µM (CHK1) was 96% and the remaining activity at 10 µM (CHK2) was 110%. The remaining activity at 10 µM (MARK3) was 101%, the remaining activity at 10 µM (TTBK2) was 114% and the remaining activity at 10 µM (DYRK2) was 106%. For the same compound, the remaining activity at 10 µM (PIM1) was 102%, the remaining activity at 10 µM (PIM3) was 87% and the remaining activity at 10 µM (CLK2) was 94%. The remaining activity at 10 µM (PAK5) was 120%, the remaining activity at 10 µM (MINK1) was 95% and the remaining activity at 10 µM (MEKK1) was 68%. For the same compound, the remaining activity at 10 µM (IRAK4) was 114%, the remaining activity at 10 µM (ULK1) was 111% and the remaining activity at 10 µM (Src) was 135%. For the same compound, the remaining activity at 10 µM (SYK) was 91%, the remaining activity at 10 µM (EPH-B4) was 120% and the remaining activity at 10 µM (IRR) was 99%. It also gave a remaining activity at 10 µM (DDR2) of 90%.
With `FC(F)(F)c1ccccc1-c1nc(NCc2cccs2)c2ccccc2n1` [Compound 1, NIH-12848, reference compound] the ΔTm at 63 µM (PI5P4Kγ+) was 7.4 ± 0.6 °C.
